# Reference: patent US20120134979A1, “METHODS AND COMPOSITIONS FOR THE TREATMENT OF SICKLE CELL DISEASE” (priority 2010, published 2012)
# Tests used:
# normal human RBCs = experiment: 2,3-DPG levels in primary cultured normal human RBCs; format: cell-based; details: for 2,3-DPG levels / production (agonist): primary cultured human RBCs from normal individuals, normoxic; for NECA-mediated 2,3-DPG induction (effect of antagonist): RBCs from normal individuals, 10 μM NECA, antagonists at 10 μM
# Experimental: (§1) Isolation of total erythrocytes and treatment of human and mouse erythrocytes in vitro. Blood collected with heparin as an anti-coagulant was centrifuged at 240×g for 10 min at room temperature, followed by aspiration of plasma and white interface. Packed red blood cells (RBCs) were washed 3 times with culture media (F-10 Ham's with 1% penicillin/streptomycin, 10% fetal bovine serum (FBS), and re-suspended to 4% hematocrit (HCT). One ml of RBCs was added to each well of a 12-well plate. Normal RBCs purified from humans were treated with different concentrations of 5′-(N-ethyl-carboxamido) adenosine (NECA, an adenosine receptor agonist, Sigma-Aldrich, St. Louis, Mo.) ranging from 1-50 μM for different time points (from 1 to 18 hr) under normoxic conditions. Normal RBCs were treated with 10 μM NECA in the presence or absence of adenosine receptor antagonists, including theophylline, PSB36, SCH442416, MRS1754 and MRS3777 (Tocris Bioscience, St. Louis, Mo.) at 10 μM. In addition, normal RBCs were treated directly with the A2BR agonist (BAY 60-6583, Bayer HealthCare AG, Wuppertal, Germany) or the A2AR agonist (CGS21680) (Tocris). Similarly, the mouse RBCs were treated with or without NECA at 10 μM in the presence or absence of theophylline (10 μM). In addition, RBCs purified from 4 adenosine receptor deficient mice were treated with 10 μM NECA. After 18 hours, cells were collected and 2,3-DPG levels were measured as described below. RBCs were purified from SCD patients and treated with or without 10 μM NECA, 5 units/ml polyethylene glycol-adenosine deaminase (PEG-ADA) or 3 mmol/L glycolic acid (Sigma-Aldrich), 10 μM MRS1754 (A2BR antagonist) under ambient oxygen (normoxia) or different levels of hypoxic conditions (for 3 hours with shaking at 37° C. At the end of experiments, 2,3-DPG levels were measured and the percentage of sickled cells determined as described below.
# (§2) 2,3-DPG analysis. 2,3-DPG concentration in RBCs was detected by a commercially available kit (Roche, Nutley, N.J., and as described in Ericson A, de Verdier C H. A modified method for the determination of 2,3-diphosphoglycerate in erythrocytes. Scandinavian journal of clinical and laboratory investigation. 1972; 29(1):84-90).
# RBCs from SCD patients [1] = experiment: Hypoxia-induced sickling of RBCs from SCD patients; format: cell-based, human; details: RBCs from individuals with SCD, hypoxic conditions
# Experimental: as §1
# (§3) Morphological study of erythrocytes and quantification of reticulocytes by flow cytometry. Blood smears were stained using the WG16-500 ml kit (Sigma-Aldrich) for sickled cells and observed using 100× oil immersion objective of Olympus BX60 microscope. […] The percentages of sickled cells among the counted cells were calculated. Reticulocyte was labeled by Retic-COUNT Reagent (Becton Dickinson) and quantified by flow cytometry (Perumbeti, et al., A novel human gamma-globin gene vector for genetic correction of sickle cell anemia in a humanized sickle mouse model: critical determinants for successful correction. Blood. 2009; 114(6):1174-1185).
# normal mouse RBCs = experiment: 2,3-DPG levels in isolated mouse RBCs treated in vitro; format: cell-based; details: for NECA-mediated 2,3-DPG induction (effect of inhibitor): normal mouse RBCs
# Experimental: as §1, §2
# RBCs from SCD patients [2] = experiment: Hypoxia-induced 2,3-DPG in erythrocytes purified from SCD patients; format: cell-based, human; details: hypoxic conditions (2% oxygen)
# Experimental: as §1, §2
# mouse RBCs = experiment: cAMP levels in isolated mouse RBCs; format: cell-based
# Experimental: Isolation of total erythrocytes and treatment of human and mouse erythrocytes in vitro. Blood collected with heparin as an anti-coagulant was centrifuged at 240×g for 10 min at room temperature, followed by aspiration of plasma and white interface. […] After 18 hours, cells were collected and 2,3-DPG levels were measured as described below. RBCs were purified from SCD patients and treated with or without 10 μM NECA, 5 units/ml polyethylene glycol-adenosine deaminase (PEG-ADA) or 3 mmol/L glycolic acid (Sigma-Aldrich), 10 μM MRS1754 (A2BR antagonist) under ambient oxygen (normoxia) or different levels of hypoxic conditions (for 3 hours with shaking at 37° C. At the end of experiments, 2,3-DPG levels were measured and the percentage of sickled cells determined as described below.
# cAMP measurement. Quantitative assays for cAMP contents in RBCs were performed by using a commercial enzyme immunoassay kit (Assay Designs Inc., Michigan, USA).
# SCD Tg mice [3] = experiment: Life span of RBCs in SCD Tg mice (in vivo biotin labelling); set-up: species or system mouse
# Experimental: Measurement of life span of RBCs in SCD Tg mice. SCD Tg mice were treated with or without PEG ? ADA (2.5 unit/week) for 8 weeks. At 6 week-treatment, RBCs were labeled in vivo by using N-hydroxysuccinimide (NHS) biotin and the life span of circulating red blood cells was measured as described (Perumbeti, et al. A novel human gamma-globin gene vector for genetic correction of sickle cell anemia in a humanized sickle mouse model: critical determinants for successful correction. Blood. 2009; 114(6):1174-1185).
# Specifically, 50 mg/kg of NHS biotin was injected into the retro-orbital plexus of SCD Tg mice (prepared in 100 μl sterile saline just prior to injection; initially dissolved at 50 mg/ml in N,—N,-dimethylacetamide) Blood samples (only 5 μl) were collected after first day of biotin-injection from tail vein by venipuncture to determine the percentage of RBCs labeled with biotin. Subsequently, 5 μl of blood were obtained by tail vein every 3 days for measurement of biotinylated RBCs until the 10th day. The percentage of biotinylated RBCs was calculated by determining the fraction of peripheral blood cells labeled with Ter-119 (to identify RBCs) that were also labeled with a streptavidin-conjugated fluorochrome by flow cytometry.
# SCD Tg mice [4] = experiment: Hematological parameters of SCD Tg mice treated with PEG-ADA or PSB1115 for 8 weeks; format: in vivo, mouse; details: 8 weeks treatment
# From the text: Mice. Berkley sickle cell disease transgenic mice (SCD Tg mice), expressing exclusively human sickle hemoglobin (HbS) were purchased from The Jackson Laboratory Inc (Paszty, C. Transgenic and gene knock-out mouse models of sickle cell anemia and the thalassemias. Curr Opin Hematol 4, 88-93, 1997). C57BL/6 mice used as controls were purchased from Harlan Laboratories. Adenosine receptor deficient mice were obtained from the following sources: A1R-deficient mice (Jurgen Schnermann, NIDDK, NIH); A2AR-deficient mice (Jiang-Fan Chen, Boston University School of Medicine); A2BR-deficient mice (Michael R. Blackburn, University of Texas-Houston Medical School); and A3R-deficient mice (Marlene Jacobson, Merck Research Laboratories). All receptor deficient mice were backcrossed at least 10 generations onto the C57Blk/6J background and were genotyped according to established protocols (Sun, D., et al. Mediation of tubuloglomerular feedback by adenosine: evidence from mice lacking adenosine receptors. Proc Natl Acad Sci USA 98, 9983-9988, 2001; Nemeth, Z. H., et al. Adenosine receptor activation ameliorates type 1 diabetes. FASEB J, 2007; Chen, J. F., et al. A2A adenosine receptor deficiency attenuates brain injury induced by transient focal ischemia in mice. J Neurosci 19, 9192-9200, 1999; Salvatore, C. A., et al. Disruption of the A3 adenosine receptor gene in mice and its effect on stimulated inflammatory cells. The Journal of Biological Chemistry 275, 4429-4434, 2000). Animals were maintained in accordance with institutional and NIH guidelines under research protocols that were reviewed and approved by the University of Texas Health Science Center at Houston Animal Welfare Committee.
# (§4) Chronic PEG-ADA therapy. SCD transgenic mice, at eight weeks of age, were divided to two groups. One group was injected with 2.5 U PEG-ADA weekly for 8 weeks. This dosing protocol was designated SCD with PEG-ADA treatment regimen (SCD+PEG-ADA). Another group was injected with normal saline for 8 weeks; it was designated as SCD without PEG-ADA treatment regimen (SCD). Wild-type mice (C57Bl/6) used as control were injected with saline or PEG-ADA as with the SCD groups.
# (§5) Chronic treatment with A2BR antagonist, PSB1115. SCD transgenic mice or wild type mice (eight weeks of age) were divided to two groups, one groups was injected with 200 μg of PSB1115 (an A2B receptor antagonist: obtained from Tocris Bioscience, St. Louis, Mo.) in PBS, daily for 8 weeks. One of groups was injected with saline.
# as §3
# SCD Tg mice [5] = experiment: 2,3-DPG in RBCs and saturated Hb in SCD Tg mice after chronic treatment; format: in vivo, mouse; details: steady state, 8 weeks treatment
# Experimental: as §4, §5, §2
# Measurement of percentage of saturated Hb in mice. Percentage of saturated Hb (SpO2) in mice was measured by Oxysat (Kent Scientific Corp, CT). Mice were held in mouse holders (Kent Scientific Corp, CT) and Oxysat sensor was placed on a site approximately 1 cm from the base of the tail. When mouse was calm, the SpO2 was continuously recorded for about 2 minutes. The data were collected and SpO2 was calculated by average of SpO2 in two-minute measurement.
# SCD Tg mice [6] = experiment: Organ weight, histology and heme content in SCD Tg mice after chronic treatment; format: in vivo, mouse; details: 8 weeks treatment, lung, liver, spleen (PSB1115 also kidney)
# Experimental: as §4, §5
# Mouse organ isolation and histological analysis. Mice were anesthetized and body weight was determined. Organs were isolated and weighed. Half of each organ was quickly frozen in liquid nitrogen and then stored at −80° C. for heme content measurements as described below. The remaining half of each organ was fixed with 4% paraformaldehyde in PBS overnight at 4° C. Fixed tissues were rinsed in PBS, dehydrated through graded ethanol washes, and embedded in paraffin. 5 μm sections were collected on slides and stained with haematoxylin and eosin (H&E). Semiquantification of histological changes was analyzed by Image-Plus, Pro software.
# Heme content measurement in multiple mouse tissues. Different organs were quickly removed and frozen in liquid nitrogen as described above. Heme was extracted from organs by homogenization with 1% Triton x-100 in PBS with 1× proteinase inhibitors (Roche) and the supernatant was collected following centrifugation at 20,000 g for 10 minutes at 4° C. Heme content was quantified following the instructions of QuantiChrom Heme Assay Kit (BioAssay Systems, Hayword, Calif.).
compound,measurement,setting,value
N#Cc1c(N)nc(SCC(N)=O)c(C#N)c1-c1ccc(OCC2CC2)cc1 [BAY 60-6583],"2,3-DPG levels / production (agonist)",normal human RBCs,"induced 2,3-DPG production in a dosage-dependent manner"
CCNC(=O)[C@H]1O[C@@H](n2cnc3c(N)nc(NCCc4ccc(CCC(=O)O)cc4)nc32)[C@H](O)[C@@H]1O [CGS21680],"2,3-DPG levels / production (agonist)",normal human RBCs,not
O=S(=O)(NCCNC/C=C/c1ccc(Br)cc1)c1cccc2cnccc12 [H-89],percentage of sickled cells,RBCs from SCD patients [1],significantly reduced
same,"NECA-mediated 2,3-DPG induction (effect of inhibitor)",normal mouse RBCs; NECA 10 μM,significantly inhibited
same,"hypoxia-mediated induction of 2,3-DPG",RBCs from SCD patients [2],reduced
CCCn1c(=O)c2[nH]c(-c3ccc(OCC(=O)Nc4ccc(C#N)cc4)cc3)nc2n(CCC)c1=O [MRS1754],percentage of sickled cells,RBCs from SCD patients [1],significantly reduced
same,"NECA-mediated 2,3-DPG induction (effect of antagonist)",normal human RBCs,inhibited
same,"hypoxia-mediated induction of 2,3-DPG",RBCs from SCD patients [2],reduced
c1ccc(Oc2nc(NC3CCCCC3)c3[nH]cnc3n2)cc1 [MRS3777],"NECA-mediated 2,3-DPG induction (effect of antagonist)",normal human RBCs,not
"CCNC(=O)[C@H]1O[C@@H](n2cnc3c(N)ncnc32)[C@H](O)[C@@H]1O [NECA, 5′-N-ethylcarboxamidoadenosine]",percentage of sickled cells,RBCs from SCD patients [1],significantly increased
same,cAMP production,mouse RBCs; RBCs from A2BR-deficient mice,not
same,cAMP production,mouse RBCs; RBCs from WT mice,capable of inducing cAMP production
same,"2,3-DPG levels / production (agonist)",normal human RBCs,"stimulated 2,3-DPG levels in a dosage and time-dependent manner"
same,"NECA-mediated 2,3-DPG induction",normal mouse RBCs; RBCs from A2BR-deficient mice,did not occur
same,"2,3-DPG levels","normal mouse RBCs; primary normal mouse mature erythrocytes, NECA 10 μM, 18 hours",stimulated an increase
same,"hypoxia-mediated induction of 2,3-DPG",RBCs from SCD patients [2],significantly stimulated a further increase
CCCCn1c(=O)c2[nH]c(C34CC5CC(CC3C5)C4)nc2n(CCCO)c1=O [PSB36],"NECA-mediated 2,3-DPG induction (effect of antagonist)",normal human RBCs,not
"CCCn1c(=O)[nH]c2nc(-c3ccc(S(=O)(=O)O)cc3)[nH]c2c1=O [PSB1115, reference compound]",fold increase of half-life of RBCs,SCD Tg mice [3]; chronic treatment vs untreated,2.75 fold
same,half-life of RBCs,"SCD Tg mice [3]; chronic treatment, untreated 2 days",132 h
same,HCT,SCD Tg mice [4],31.82 ± 3.43 %
same,Hb,SCD Tg mice [4],8.25 ± 0.29 g/dL
same,MCH,SCD Tg mice [4],12.78 ± 0.46 pg
same,MCHC,SCD Tg mice [4],26.02 ± 1.82 g/dL
same,MCV,SCD Tg mice [4],49.17 ± 1.82 fL
same,RDW,SCD Tg mice [4],28.27 ± 1.36 %
same,Reticulocyte,SCD Tg mice [4],37.15 ± 3.27 %
same,Sickle cell,SCD Tg mice [4],9.07 ± 0.75 %
same,WBC,SCD Tg mice [4],11.95 ± 3.27 k/μl
same,RBC,SCD Tg mice [4]; mean ± SEM,6.45 ± 0.45 M/μl
same,"2,3-DPG levels in the RBCs",SCD Tg mice [5],decreases
same,"congestion, vascular damage and necrosis in multiple tissues (histology)",SCD Tg mice [6],reduced
COc1ccc(CCCn2ncc3c2nc(N)n2nc(-c4ccco4)nc32)cc1 [SCH442416],"NECA-mediated 2,3-DPG induction (effect of antagonist)",normal human RBCs,not
"O=C(O)CO [glycolate, glycolic acid]",percentage of sickled cells,RBCs from SCD patients [1],significantly reduced
same,"hypoxia-mediated induction of 2,3-DPG",RBCs from SCD patients [2],reduced
Cn1c(=O)c2[nH]cnc2n(C)c1=O [theophylline],"NECA-mediated 2,3-DPG induction (effect of antagonist)",normal human RBCs,inhibited
same,"NECA-mediated 2,3-DPG induction (effect of inhibitor)",normal mouse RBCs; NECA 10 μM,prevented
